From US20100144854A1 (priority 2007, published 2010) come the findings set out here.

In data set [1] the test system is Recurring cancer of the right ovary. The data set is described as follows: Example 8: patient with recurring ovarian cancer treated with rhodamine 6G enema. To be noted: Patient T, 52; third day after start; enema 5 g per day. It is filed as in vivo, human. As for the experimental part:
In connection with the detection of carcinoma of the left ovary the patient underwent a hysterectomy.
After the operation the patient was given a 2-year course of chemotherapy. The patient subsequently complained of pain in the rectum and tenesmus.
Diagnosis: Recurring cancer of the right ovary.
In view of the ineffectiveness of continuing the chemotherapy, the patient was treated with the preparation in the form of an enema.

For data set [2], the system named is primary generalized amyloidosis. The data set is described as follows: Example 10: patient with primary generalized amyloidosis treated with rhodamine 6G. It is filed as in vivo, human. To be noted: Patient T, 67. From the text:
Patient T. Diagnosis: Ischemic heart disease: Atherosclerosis, cardiosclerosis, atrial fibrillation. Amyloidosis? On account of deterioration in the patient's condition (increased frequency of dyspnea) the patient was hospitalised. On admission the patient's overall condition was fairly serious. Skin and visible mucous membranes normal colour, moderately cyanosed lips. Heart sounds—muffled, arrhythmia—atrial fibrillation with frequency of ventricular contractions 110 beats/min (pulse deficiency 12), blood pressure 100/60 mm Hg. In left lung, dull percussion sound below the middle of the shoulder blade; no breathing detected above this region. Individual moist rales heard to the right in the projection of the lower lobe. Diseased liver, lower edge extending 4 cm below the level of the costal margin. Edema of the legs as far as middle third of femur and anasarca were diagnosed.
Low voltage waves recorded on ECG, taxistological shape of atrial fibrillation, QS in leads V1-V4. […] Disturbed diastolic relaxation of myocardium of left ventricle was noted. […] In the biochemical blood analysis the level of total protein was reduced (down to 50 g/l), while the levels of urea (to 9.66 mmol/l) and creatinine (to […]) were both raised. […] Ultrasound investigation of organs of the abdominal cavity: enlarged liver (right lobe—16.9 cm), echogenicity reduced, and irregular structure; portal vein−15 mm. Gall bladder: 52×22 mm, wall up to 4 mm, unobstructed lumen. Pancreas: uniform, echogenicity raised, focalized diffuse changes. […] Calyculate-pelvic system of both kidneys not enlarged. Fogging of the lung pattern and diffuse changes were observed on an anterioposterior chest X-ray. A needle liver biopsy was performed in order to exclude amyloidosis. Signs of primary amyloidosis were detected. […] 5% suppositories in the rectum at night. Treatment according to this regimen was continued for 2 months. […] Intravenous administration twice a week. The course of treatment lasted 2 months. […] The liver and kidneys were normal size on an ultrasound scan.

Data set [3] concerns renal cell carcinoma. As to the kind of experiment: Example 2: patient with renal cell carcinoma and lung formations treated with rhodamine 6G. It is filed as in vivo, human. Conditions: Patient L, 43. As for the experimental part:
Three years previously the left kidney was removed and prophylactic chemotherapy was carried out to treat renal cell carcinoma. […] Severe dyspnea, diagnosis adynamia. Treatment was prescribed, including the use of a medicinal preparation having an anti-tumor action. […] After 4 weeks the dyspnea and pain had decreased. Blood analyses against the treatment background normalised over 3 months. A repeat course of treatment with the preparation was then prescribed, which was administered rectally in the form of a 1% suppository and also by inhalation for 6 months. Over the course of the treatment the tumor in the right kidney and the metastases in the lungs disappeared.

The nature of data set [4]: Tolerability on use in a wide range of dosages. It is filed as in vivo. Conditions: used in a wide range of dosages.
Data set [5] concerns amyloidosis. As to the kind of experiment: Example 1: patient with amyloidosis treated with rhodamine 6G. To be noted: Patient V. It is filed as in vivo, human. How it is done: Patient V. Diagnosis: amyloidosis. The patient felt lethargic and “under the weather”. […] The first course of treatment with the preparation consisted of 15 drops of a 1% solution in a glass of water three times a day by mouth, at the evening meal in addition a microenema of 10 drops of a 1% solution in 30 ml of water, and at night a 1% suppository containing the preparation. […] By the third week after the start of treatment the patient's condition had improved. In the words of relatives, the patient was “feeling better”. […] Blood analyses against the treatment background were normal.

Data set [6] has as its system adenocarcinoma of the right ovary. The data set is described as follows: Example 3: patient with ovarian adenocarcinoma treated with rhodamine 6G. It is filed as in vivo, human. To be noted: Patient T, 54. The text has this: Patient T. Diagnosis: adenocarcinoma of the right ovary. Metastases in the liver. A hysterectomy had been carried out 4 years before. There was a recurrence of the cancer after a year. The patient complained of pain in the pelvis and difficulty in urination. […] The patient's condition was moderately severe; pale skin. […] The course of treatment lasted 3 months. During the treatment the tumor decreased in size to 1.2×0.9×0.3 cm. […] Blood analyses against the treatment background became normal over 2 months. A full course of treatment with the preparation was carried out over 6 months. During the course of the treatment the tumor in the region of the bladder and rectum disappeared.

In the case of “9-(2-ethoxycarbonyl)phenyl)-3,6-bis(ethylamino)2,7-dimethylxanthyl chloride [rhodamine 6G]”, the “severity of the pain” value in data set [1] is reported as “decreased”. The “condition of the patient” value in data set [2] (5 g in 250 ml water three times a day, 5% suppositories, 2 months) is recorded as “gradually improved”. The “size of the heart, echocardiogram” value in data set [2] (after oral/rectal 2 months and 2 g i.v. twice a week 2 months) was “reduced”. In data set [2] (after treatment), the “blood and urine analyses” value is on record as “in the normal range”; the “dilation of the left and right atria, echocardiogram” value is “significantly reduced”; the “fibrillation on the EKG” value is given as “no fibrillation”; the “liver and kidneys, ultrasound scan” value is given as “normal size”. Moreover, in data set [2] (after treatment), the “patient's complaints” value is on record as “no complaints” and the “voltage waves on the EKG” value is on record as “in the normal range”. Moreover, in data set [3] (after 4 weeks, 12 drops 1% solution oral three times a day and microenema), the dyspnea and pain result was “decreased”. For the same substance, the body weight entry in data set [3] (after treatment) is recorded as “regained weight”. Further, the “blood analyses against the treatment background” value (“blood analyses” below) in data set [3] (over 3 months) was “normalised”. In data set [3] (over the course of treatment, before: mass 3.5×5.4×3.7 cm, four lung formations 2.0-2.3 cm), the “tumor in the kidney and metastases in the lungs” value is “disappeared”. Also, in data set [4], the “allergic reactions or other side effects” value is given as “does not produce any allergic reactions or other side effects”. For the same substance, the “blood analyses” value in data set [5] is recorded as “normal”. Also, in data set [5] (73, first week, 1% solution oral, microenema, 1% suppository), the “patient's condition” value was “basically no change”. Further, the “patient's condition” value in data set [5] (one year after treatment) is recorded as “significantly improved”. The “patient's condition” value in data set [5] (third week after start of treatment) is listed as “improved”. The “amyloid foci in the brain, CT scan” value in data set [5] (three months after start of treatment) is recorded as “reduction of amyloid foci in the brain”. In addition, the body weight entry in data set [6] (after treatment) was “regained weight”. Besides, the “tumor in the region of the bladder and rectum” value in data set [6] (full course over 6 months) was “disappeared”. Moreover, the “blood analyses” value in data set [6] (over 2 months) is reported as “became normal”. In data set [6] (second week after start), the “stools and feeling of pain” value is “the stools became normal and the feeling of pain disappeared”.
